A value given as a limit tells only on which side of the number the result lay.

Consider 29 molecules from patent publication US20230303552A1, “ARYLSULFONYL DERIVATIVES AND THEIR USE AS MUSCARINIC ACETYLCHOLINE RECEPTOR M5 INHIBITORS” (Vanderbilt University, priority 2020, published 2023).

The assay concerns the target T1, human M5 receptors (hM5) (Homo sapiens, UniProt P08912).
T1 construct: expressed in transfected cells
T1 sequence (P08912 1-532): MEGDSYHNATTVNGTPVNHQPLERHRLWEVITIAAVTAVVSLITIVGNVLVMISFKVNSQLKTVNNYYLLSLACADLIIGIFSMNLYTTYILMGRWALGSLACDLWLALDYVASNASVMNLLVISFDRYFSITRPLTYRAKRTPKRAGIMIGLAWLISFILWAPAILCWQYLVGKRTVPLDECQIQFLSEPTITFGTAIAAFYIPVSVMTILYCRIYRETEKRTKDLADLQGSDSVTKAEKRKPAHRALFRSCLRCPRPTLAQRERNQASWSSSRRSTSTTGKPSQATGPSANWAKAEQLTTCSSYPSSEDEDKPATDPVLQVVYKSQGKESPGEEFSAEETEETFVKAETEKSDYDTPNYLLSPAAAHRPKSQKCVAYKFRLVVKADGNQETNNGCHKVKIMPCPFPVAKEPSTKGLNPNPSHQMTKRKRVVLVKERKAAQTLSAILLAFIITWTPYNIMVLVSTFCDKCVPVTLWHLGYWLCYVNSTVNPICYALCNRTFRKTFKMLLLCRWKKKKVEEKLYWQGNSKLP
The assay is described as follows: Cell-based functional calcium mobilization assay of mAChR M5 activity (inhibition of EC80 acetylcholine response) in CHO cells. The following applies: CHO cells stably expressing hM5; for IC50: calcium flux (Fluo-4), EC80 acetylcholine addition; for EC80 MIN: minimum of EC80 acetylcholine response, normalized to maximum acetylcholine response. The procedure, abridged: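 CHO cells stably expressing human M5, loaded with Fluo-4 AM in HBSS/20 mM HEPES/2.5 mM probenecid pH 7.4. Compound added 140 s before acetylcholine EC20, then EC80 added 125 s later. Calcium flux normalized to maximal acetylcholine response; IC50 from ten-point curves in the EC80 window.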
Background: Calcium flux is commonly read through the fluorescence of an indicator in the cells.

Consider `O=C(Nc1ccc2scnc2c1)C1CCN(S(=O)(=O)c2ccccc2OC(F)(F)F)CC1` [Compound 53, N-(benzo[d]thiazol-5-yl)-1-((2-(trifluoromethoxy)phenyl)sulfonyl)piperidine-4-carboxamide], for which the IC50 worked out at 4.11 µM and the “EC80 MIN” value worked out at 4%.

On to `O=C(Nc1ccc2scnc2c1)C1CCN(S(=O)(=O)c2cccc(C(F)(F)F)c2)CC1` [Compound 54, N-(benzo[d]thiazol-5-yl)-1-((3-(trifluoromethyl)phenyl)sulfonyl)piperidine-4-carboxamide], for which the IC50 is over 10 µM and the “EC80 MIN” value was determined as 51%.

Turning to `O=C(Nc1ccc2scnc2c1)[C@H]1CCN(S(=O)(=O)c2ccc3c(c2)CCO3)C1` [Compound 55, (S)-N-(benzo[d]thiazol-5-yl)-1-((2,3-dihydrobenzofuran-5-yl)sulfonyl)pyrrolidine-3-carboxamide], the IC50 came to 0.361 µM and the “EC80 MIN” value turned out to be 3%.

`O=C(Nc1ccc2scnc2c1)[C@H]1CCN(S(=O)(=O)c2cc3c(cc2F)OCC3)C1` [Compound 56, (S)-N-(benzo[d]thiazol-5-yl)-1-((6-fluoro-2.3-dihydrobenzofuran-5-yl)sulfonyl)pyrrolidine-3-carboxamide]: the IC50 was 0.719 µM and the “EC80 MIN” value is on record as 2%.

As to `O=C(Nc1ccc2scnc2c1)C1CCN(S(=O)(=O)c2ccc3c(c2Br)CCO3)CC1` [Compound 57, N-(benzo[d]thiazol-5-yl)-1-((4-bromo-2,3-dihydrobenzofuran-5-yl)sulfonyl)piperidine-4-carboxamide], the IC50 was 0.333 µM and the “EC80 MIN” value is listed as 2%.

Take `O=C(Nc1ccc2scnc2c1)C1CCN(S(=O)(=O)c2ccc(Br)c3c2OCC3)CC1` [Compound 58, N-(benzo[d]thiazol-5-yl)-1-((4-bromo-2,3-dihydrobenzofuran-7-yl)sulfonyl)piperidine-4-carboxamide]: the IC50 was over 10 µM and the “EC80 MIN” value is recorded as 34%.

Regarding `O=C(Nc1ccc2scnc2c1)[C@@H]1CCN(S(=O)(=O)c2ccc3c(c2Br)CCO3)C1` [Compound 59, (R)-N-(benzo[d]thiazol-5-yl)-1-((4-bromo-2,3-dihydrobenzofuran-5-yl)sulfonyl)pyrrolidine-3-carboxamide], the IC50 was determined as 0.487 µM and the “EC80 MIN” value is on record as 2%.

For the molecule `O=C(Nc1ccc2scnc2c1)[C@@H]1CCN(S(=O)(=O)c2ccc(Br)c3c2OCC3)C1` [Compound 60, (R)-N-(benzo[d]thiazol-5-yl)-1-((4-bromo-2,3-dihydrobenzofuran-7-yl)sulfonyl)pyrrolidine-3-carboxamide], the IC50 is over 10 µM and the “EC80 MIN” value came out at 31%.

With `O=C(Nc1ccc2scnc2c1)C1CCN(S(=O)(=O)c2c(Cl)ccc3nonc23)CC1` [Compound 61, N-(benzo[d]thiazol-5-yl)-1-((5-chlorobenzo[c][1,2,5]oxadiazol-4-yl)sulfonyl)piperidine-4-carboxamide], the IC50 was over 10 µM and the “EC80 MIN” value is 60%.

In the case of `COc1ccc(S(=O)(=O)N2CCC(C(=O)Nc3ccc4scnc4c3)CC2)c(C)c1` [Compound 62, N-(benzo[d]thiazol-5-yl)-1-((4-methoxy-2-methylphenyl)sulfonyl)pipe ridine-4-carboxamide], the IC50 is over 10 µM and the “EC80 MIN” value is reported as 22%.

On to `O=C(Nc1ccc2scnc2c1)C1CCN(S(=O)(=O)c2cccc(F)c2)CC1` [Compound 63, N-(benzo[d]thiazol-5-yl)-1-((3-fluorophenyl)sulfonyl)piper idine-4-carboxamide], for which the IC50 was 2.55 µM and the “EC80 MIN” value is given as 2%.

Regarding `O=C(Nc1ccc2scnc2c1)C1CCN(S(=O)(=O)c2ccccc2C(F)(F)F)CC1` [Compound 64, N-(benzo[d]thiazol-5-yl)-1-((2-(trifluoromethyl)phenyl)sulfonyl)piperidine-4-carboxamide], the IC50 is over 10 µM and the “EC80 MIN” value is given as 2%.

As for `O=C(Nc1ccc2scnc2c1)C1CCN(S(=O)(=O)c2ccccc2Cl)CC1` [Compound 65, N-(benzo[d]thiazol-5-yl)-1-((2-chlorophenyl)sulfonyl)piper idine-4-carboxamide], the IC50 was 0.652 µM and the “EC80 MIN” value was 2%.

On to `O=C(Nc1ccc2scnc2c1)C1CCN(S(=O)(=O)c2ccc(Cl)cc2)CC1` [Compound 66, N-(benzo[d]thiazol-5-yl)-1-((4-chlorophenyl)sulfonyl)piper idine-4-carboxamide], for which the IC50 is over 10 µM and the “EC80 MIN” value was 16%.

As to `O=C(Nc1ccc2scnc2c1)C1CCN(S(=O)(=O)c2ccc(F)cc2)CC1` [Compound 67, N-(benzo[d]thiazol-5-yl)-1-((4-fluorophenyl)sulfonyl)piper idine-4-carboxamide], the IC50 was over 10 µM and the “EC80 MIN” value is on record as 7%.

For `O=C(Nc1ccc2scnc2c1)C1CCN(S(=O)(=O)c2ccccn2)CC1` [Compound 68, N-(benzo[d]thiazol-5-yl)-1-(pyridin-2-ylsulfonyl)piperidine-4-carboxamide], the IC50 is over 10 µM and the “EC80 MIN” value turned out to be 39%.

As to `O=C(Nc1ccc2scnc2c1)[C@@H]1CCN(S(=O)(=O)c2cc(I)c3c(c2)CCO3)C1` [Compound 74, (R)-N-(benzo[d]thiazol-5-yl)-1((7-iodo-2,3-dihydrobenzofuran-5-yl)sulfonyl)pyrrolidine-3-carboxamide], the IC50 amounted to 0.895 µM and the “EC80 MIN” value worked out at 2%.

As for `O=C(Nc1ccc2scnc2c1)[C@@H]1CCN(S(=O)(=O)c2ccc(Cl)nc2)C1` [Compound 76, (R)-N-(benzo[d]thiazol-5-yl)-1-((6-chloropyridin-3-yl)sulfonyl)pyrrolidine-3-carboxamide], the IC50 is over 10 µM and the “EC80 MIN” value was determined as 23%.

Turning to `C[C@H]1CN(S(=O)(=O)c2ccc3c(c2)CCO3)C[C@@H]1C(=O)Nc1ccc2scnc2c1` [Compound 78], the IC50 stood at 0.076 µM and the “EC80 MIN” value is reported as 3%.

For the molecule `Cc1cc(S(=O)(=O)N2CC[C@@H](C(=O)Nc3ccc4scnc4c3)C2)cc2c1OCC2` [Compound 83, (R)-N-(benzo[d]thiazol-5-yl)-1-((7-methyl-2,3-dihydrobenzofuran-5-yl)sulfonyl)pyrrolidine-3-carboxamide], the IC50 is 1.46 µM and the “EC80 MIN” value was 3%.

As for `CN(C(=O)C1CCN(S(=O)(=O)c2ccc3c(c2)CCO3)CC1)c1ccc2scnc2c1` [Compound 84, N-(Benzo[d]thiazol-5-yl)-1-((2,3-Dihydrobenzofuran-5-yl)Sulfonyl)-N-Methylpiperidine-4-Carboxamide], the IC50 was over 10 µM.

Take `CC(=O)N(C(=O)C1CCN(S(=O)(=O)c2ccc3c(c2)CCO3)CC1)c1ccc2scnc2c1` [Compound 85, N-Acetyl-N-(Benzo[d]thiazol-5-yl)-1-((2,3-Dihydrobenzofuran-5-yl)Sulfonyl)Piperidine-4-Carboxamide]: the IC50 stood at 1.75 µM and the “EC80 MIN” value worked out at 3%.

Turning to `O=C(Nc1cnc2cc[nH]c2c1)C1CCN(S(=O)(=O)c2ccc3c(c2)CCO3)CC1` [Compound 89, 1-((2,3-dihydrobenzofuran-5-yl)sulfonyl)-N-(1H-pyrrolo[3,2-b]pyridin-6-yl)piperidine-4-carboxamide], the IC50 is over 10 µM and the “EC80 MIN” value is 79%.

For the molecule `O=C(Nc1cnc2[nH]ccc2c1)C1CCN(S(=O)(=O)c2ccc3c(c2)CCO3)CC1` [Compound 90, 1-((2,3-dihydrobenzofuran-5-yl)sulfonyl)-N-(1H-pyrrolo[2,3-b]pyridin-5-yl)piperidine-4-carboxamide], the IC50 is over 10 µM and the “EC80 MIN” value is on record as 69%.

As for `Cc1nc2cc(NC(=O)C3CCN(S(=O)(=O)c4ccc5c(c4)CCO5)CC3)ccc2s1` [Compound 91, 1-((2,3-Dihydrobenzofuran-5-yl)Sulfonyl)-N-(2-Methylbenzo[d]thiazol-5-yl)Piperidine-4-Carboxamide], the IC50 turned out to be 0.138 µM and the “EC80 MIN” value came out at 17%.

In the case of `O=C(Nc1ccc2snnc2c1)C1CCN(S(=O)(=O)c2ccc3c(c2)CCO3)CC1` [Compound 100], the IC50 came to 0.129 µM and the “EC80 MIN” value came to 14%.

Take `Cc1cc2scnc2cc1NC(=O)C1CCN(S(=O)(=O)c2ccc3c(c2)CCO3)CC1` [Compound 101, 1-((2,3-dihydrobenzofuran-5-yl)sulfonyl)-N-(6-methylbenzo[d]thiazol-5-yl)piperidine-4-carboxamide]: the IC50 is over 10 µM and the “EC80 MIN” value was determined as 49%.

On to `O=C(Nc1cnc2scnc2c1)C1CCN(S(=O)(=O)c2ccc3c(c2)CCO3)CC1` [Compound 102, 1-((2,3-dihydrobenzofuran-5-yl)sulfonyl)-N-(thiazolo[5,4-b]pyridin-6-yl)piperidine-4-carboxamide], for which the IC50 is over 10 µM and the “EC80 MIN” value was 56%.

As for `CC1(C(=O)Nc2ccc3scnc3c2)CCN(S(=O)(=O)c2ccc3c(c2)CCO3)CC1` [Compound 104, N-(benzo[d]thiazol-5-yl)-1-((2,3-dihydrobenzofuran-5-yl)sulfonyl)-4-methylpiperidine-4-carboxamide], the IC50 is over 10 µM and the “EC80 MIN” value is on record as 3%.

For orientation: IC50 means the concentration that gives 50% inhibition.
